The record followed here is ChEMBL document CHEMBL1141671, “N6-1,3-diphenylurea derivatives of 2-phenyl-9-benzyladenines and 8-azaadenines: synthesis and biological evaluation as allosteric modulators of A2A adenosine receptors” (Eur J Med Chem, 2008).

For test [1], the target named is T1, Adenosine receptor A1 (Rattus norvegicus) (UniProt P25099).
T1 sequence (whole entry): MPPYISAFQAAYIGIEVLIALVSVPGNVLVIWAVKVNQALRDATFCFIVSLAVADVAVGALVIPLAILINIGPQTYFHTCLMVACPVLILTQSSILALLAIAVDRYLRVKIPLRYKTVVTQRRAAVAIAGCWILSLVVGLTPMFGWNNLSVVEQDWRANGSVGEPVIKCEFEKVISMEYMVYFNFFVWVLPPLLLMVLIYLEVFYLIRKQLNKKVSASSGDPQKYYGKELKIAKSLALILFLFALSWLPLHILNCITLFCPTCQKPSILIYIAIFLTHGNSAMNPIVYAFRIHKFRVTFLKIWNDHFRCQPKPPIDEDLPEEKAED
Description: Displacement of [3H]DPCPX from adenosine A1 receptor in Wistar rat cerebral cortex at 10 uM by liquid scintillation counting relative to control. The test is classed as tissue-based.

Test [2] has as its target T1, Adenosine receptor A1 (Rattus norvegicus). Description: Displacement of [3H]CCPA adenosine A1 receptor in Wistar rat cerebral cortex at 10 uM by liquid scintillation counting relative to control. The format is tissue-based.
Test [3] deals with T2, Adenosine receptor A2a (Homo sapiens, UniProt P29274). Description: Displacement of [3H]ZM241385 from human recombinant adenosine A2A receptor expressed in CHO cells at 10 uM by liquid scintillation counting relative to control. The format is cell-based. For orientation: Displacement assays read how much labelled ligand stays bound in the presence of the test substance.
Test [4] has as its target T2, Adenosine receptor A2a. Description: Displacement of [3H]CGS21680 from human recombinant adenosine A2A receptor expressed in CHO cells at 10 uM by liquid scintillation counting relative to control. The test is classed as cell-based.
For test [5], the target named is T3, Adenosine receptor A3 (Homo sapiens) (UniProt P0DMS8).
T3 sequence (whole entry): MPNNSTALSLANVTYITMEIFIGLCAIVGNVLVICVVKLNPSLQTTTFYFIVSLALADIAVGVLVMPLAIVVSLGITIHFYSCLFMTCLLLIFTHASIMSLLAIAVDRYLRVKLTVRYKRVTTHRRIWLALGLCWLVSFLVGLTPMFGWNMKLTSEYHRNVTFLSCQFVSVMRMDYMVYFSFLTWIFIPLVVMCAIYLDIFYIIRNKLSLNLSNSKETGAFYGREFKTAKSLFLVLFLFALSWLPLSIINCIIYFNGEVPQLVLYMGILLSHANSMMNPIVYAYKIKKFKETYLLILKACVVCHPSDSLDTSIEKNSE
Description: Displacement of [3H]NECA from human recombinant adenosine A3 receptor expressed in CHO cells at 10 uM by liquid scintillation counting relative to control. The format is cell-based.

The next test deals with T4, Adenosine receptor A3 (Homo sapiens, UniProt P0DMS8).
T4 sequence (P0DMS8 whole entry): T3 sequence (whole entry)
Description: Displacement of [3H]NECA from human recombinant adenosine A3 receptor expressed in CHO cells by liquid scintillation counting. The format is cell-based.

Test [6] has as its system Aorta. Description: Vasorelaxation activity in Wistar rat endothelium-intact aortic ring assessed as inhibition of noradrenaline-induced contraction after 20 mins. Conditions: read-out: pIC50 (converted).
For test [7], the system named is Aorta. Description: Vasorelaxation activity in Wistar rat endothelium-intact aortic ring assessed as inhibition of noradrenaline-induced contraction at 10 uM after 20 mins. The format is functional.
For test [8], the system named is Aorta. Description: Potentiation of CGS-21680-induced vasorelaxation activity in Wistar rat endothelium-intact aortic ring assessed as inhibition of noradrenaline-induced contraction at 10 uM after 20 mins. The format is functional.
Test [9] concerns Aorta. Description: tissue or blood. Conditions: Rattus norvegicus, Wistar, 20 min, read-out: pIC50 (converted).
Test [10] has as its target T5, Adenosine receptor A1 (Rattus norvegicus, UniProt P25099).
T5 sequence (P25099 whole entry): T1 sequence (whole entry)
Description: Displacement of [3H]DPCPX from adenosine A1 receptor in Wistar rat cerebral cortex by liquid scintillation counting. The test is classed as tissue-based.

Test [11] concerns the target T5, Adenosine receptor A1. Description: Displacement of [3H]CCPA from adenosine A1 receptor in Wistar rat cerebral cortex by liquid scintillation counting. The format is tissue-based.
Test [12] concerns the target T2, Adenosine receptor A2a. Description: Displacement of [3H]ZM241385 from human recombinant adenosine A2A receptor expressed in CHO cells by liquid scintillation counting. The test is classed as cell-based.
In test [13] the target is T2, Adenosine receptor A2a. Description: Displacement of [3H]CGS21680 from human recombinant adenosine A2A receptor expressed in CHO cells by liquid scintillation counting. The format is cell-based.
The target of test [14] is T2, Adenosine receptor A2a. The conditions noted are these: CHO.
Description: Dissociation of [3H]ZM241385 from human adenosine A2A receptor expressed in CHO cells at 100 uM by liquid scintillation counting relative to control
Test [15] concerns the target T2, Adenosine receptor A2a. Conditions: CHO. The source holds these as a separate data set.
Description: Displacement of [3H]ZM241385 from human adenosine A2A receptor expressed in CHO cells assessed as time course of dissociation at 10 uM by liquid scintillation counting relative to control

In general, Ki refers to the equilibrium dissociation constant of an inhibitor or competing ligand from its target. By Emax is commonly meant the greatest response seen or fitted, relative to the assay's reference. As a reminder, the EC50 is the concentration at which the effect is half-maximal.

T2 sequence (P29274 whole entry): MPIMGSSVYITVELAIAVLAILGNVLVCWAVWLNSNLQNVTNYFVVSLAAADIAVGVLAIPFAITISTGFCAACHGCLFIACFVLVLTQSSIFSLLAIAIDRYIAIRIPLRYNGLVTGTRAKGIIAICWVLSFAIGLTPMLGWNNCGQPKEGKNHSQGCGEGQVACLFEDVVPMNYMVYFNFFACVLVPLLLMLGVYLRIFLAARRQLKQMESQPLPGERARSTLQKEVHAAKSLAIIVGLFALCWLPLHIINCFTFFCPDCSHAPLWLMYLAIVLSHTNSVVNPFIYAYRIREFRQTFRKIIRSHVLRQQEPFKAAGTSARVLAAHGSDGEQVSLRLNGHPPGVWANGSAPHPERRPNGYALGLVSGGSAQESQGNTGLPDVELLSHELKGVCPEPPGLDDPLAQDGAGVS

On to `O=C(Nc1ccc(Nc2nc(-c3ccccc3)nc3c2ncn3Cc2ccccc2)cc1)Nc1ccc(C(F)(F)F)cc1`, for which the Activity is 106% in test [1]; 67% in test [2]; 149% at Adenosine receptor A2a [3]; 57% on Adenosine receptor A2a [4]; 37% in test [5]. Further, the inhibition constant (Ki) at Adenosine receptor A3 was found to be 5.61 µM.
For `CCNC(=O)[C@H]1O[C@@H](n2cnc3c(N)nc(NCCc4ccc(CCC(=O)O)cc4)nc32)[C@H](O)[C@@H]1O` [CGS-21680], the results for the IC50 in the test with Aorta [6] and with Aorta [9] were 0.263 µM and 0.0692 µM, respectively. Besides, the figures for the Emax at 10 µM with Aorta [7] and with Aorta [8] were 76% and 91%, respectively.
As for `O=C(Nc1ccc(F)cc1)Nc1ccc(Nc2nc(-c3ccccc3)nc3c2ncn3Cc2ccccc2)cc1`, the Activity turned out to be 105% in test [1]; 85% in test [2]; 111% on Adenosine receptor A2a [3]; 83% at Adenosine receptor A2a [4]; 70% in [5].
Turning to `O=C(Nc1ccccc1)Nc1ccc(Nc2nc(-c3ccccc3)nc3c2nnn3Cc2ccccc2)cc1`, the Activity was found to be 110% in test [1]; 79% in [2]; 133% at Adenosine receptor A2a [3]; 57% at Adenosine receptor A2a [4]; 78% in test [5].
Taken in the same sequence, the figures for `O=C(Nc1ccccc1)Nc1ccc(Nc2nc(-c3ccccc3)nc3c2ncn3Cc2ccccc2)cc1` were 101%, 73%, 107%, 74% and 53%.
Turning to `O=[N+]([O-])c1ccc(Nc2nc(-c3ccccc3)nc3c2nnn3Cc2ccccc2)cc1`, the Activity was found to be 105% in [1]; 33% in [2]; 98% at Adenosine receptor A2a [3]; 96% on Adenosine receptor A2a [4]; 58% in [5].
With `O=C(Nc1ccc(Nc2nc(-c3ccccc3)nc3c2nnn3Cc2ccccc2)cc1)Nc1ccc(C(F)(F)F)cc1`, the Activity in test [1] came out at 94%; in test [2], 74%; at Adenosine receptor A2a [3], 127%; on Adenosine receptor A2a [4] it was 180%; in test [5] it was 72%.
For `COc1ccc(NC(=O)Nc2ccc(Nc3nc(-c4ccccc4)nc4c3ncn4Cc3ccccc3)cc2)cc1` the same measures were 107%, 68%, 166%, 120% and 56%.
Consider `COc1ccc(NC(=O)Nc2ccc(Nc3nc(-c4ccccc4)nc4c3nnn4Cc3ccccc3)cc2)cc1`, for which the Activity came to 105% in [1]; 74% in test [2]; 142% at Adenosine receptor A2a [3]; 59% at Adenosine receptor A2a [4]; 58% in [5].
Consider `Nc1ccc(Nc2nc(-c3ccccc3)nc3c2nnn3Cc2ccccc2)cc1`, for which the Activity in test [1] is 33%; in test [2], 4%; at Adenosine receptor A2a [3], 77%; at Adenosine receptor A2a [4], 0%; in test [5] it was 49%. The EC50 at Adenosine receptor A1 [10] is 0.75 µM; at Adenosine receptor A2a [12], 9.74 µM. Besides, the Ki at Adenosine receptor A1 [10] was 0.132 µM; on Adenosine receptor A1 [11], 0.103 µM; on Adenosine receptor A2a [12], 1.3 µM; at Adenosine receptor A2a [13], 0.28 µM. At Adenosine receptor A2a [14], this molecule returned a Kdiss of 0.078 s⁻¹. In addition, at Adenosine receptor A2a [15], the T1/2 was 8.89 s.
As to `O=C(Nc1ccc(F)cc1)Nc1ccc(Nc2nc(-c3ccccc3)nc3c2nnn3Cc2ccccc2)cc1`, the Activity in [1] was 107%; in test [2], 72%; on Adenosine receptor A2a [3], 167%; on Adenosine receptor A2a [4] it was 176%; in [5], 92%. Besides, the EC50 came to 16 µM on Adenosine receptor A2a [12] and 9.95 µM on Adenosine receptor A2a [13]. On Adenosine receptor A2a [14], the Kdiss was determined as 0.052 s⁻¹. For the same molecule, the T1/2 at Adenosine receptor A2a [15] came out at 13.2 s.
Regarding `Nc1ccc(Nc2nc(-c3ccccc3)nc3c2ncn3Cc2ccccc2)cc1`, the Activity was 46% in test [1]; 7% in test [2]; 59% on Adenosine receptor A2a [3]; 44% on Adenosine receptor A2a [4]; 56% in [5]. The inhibitory constant (Ki) at Adenosine receptor A1 [10] was 0.396 µM; at Adenosine receptor A1 [11] it was 0.294 µM; on Adenosine receptor A2a [12] it was 5.74 µM; at Adenosine receptor A2a [13] it was 4.17 µM.
With `O=[N+]([O-])c1ccc(Nc2nc(-c3ccccc3)nc3c2ncn3Cc2ccccc2)cc1`, the Activity amounted to 84% in [1]; 2% in test [2]; 84% at Adenosine receptor A2a [3]; 114% at Adenosine receptor A2a [4]; 51% in test [5]. Besides, the results for the Ki on Adenosine receptor A1 [10], at Adenosine receptor A1 [11] and on Adenosine receptor A2a [12] were 0.699 µM, 0.571 µM and 1.9 µM, respectively.
